From patent US8552058B2, “Application of L-n-butylphthalide in preventing and treating dementia” (CSPC Zhongqi Pharmaceutical Technology (Shijazhuang) Co., …, priority 2004, dated 2013)
“Also recorded” adds a separate entry of the source.

What was measured:
Assay type in all cases: in vivo, Wistar rats
malondialdehyde (MDA) [1] = assay: MDA content in cortex and hippocampus after continuous perfusion of Aβ (1-40); conditions: Aβ (1-40) rats; for MDA, hippocampus / MDA, cortex: n = 7; for MDA, hippocampus: model 1.48 ± 0.12, sham 1.13 ± 0.06; for MDA, cortex: model 1.48 ± 0.14, sham 1.10 ± 0.09
Procedure: (§1) Male Wistar rats, which were 10-weeks old and weighed approximately 280 grams, were used. One animal was placed in one cage, while the room temperature was kept at 23° C., with food and water freely accessible. Rats were anaesthetized with sodium pentobarbital (40 mg/kg), and were fixed to stereotaxic apparatus with the position of ventral decubitus. Head skin was cut open, a cannula for Aβ (1-40) perfusion was implanted into right ventricle. According to the stereotaxic profile of rat brain by Paxions and Watson, the implantation site was located 0.3 mm behind and 1.1 mm in the right side of anterior fontanelle, with the depth of 4.0 mm. The cannula was connected to a micro-osmotic pump. The pump was placed on the back of the rat. Aβ (1-40) was dissolved in 35% acetonitrile/0.1% trifluroacetic acid, and was continuously perfused intracerebroventricularly (i.c.v.) at 300 pmol/day, while only the solvent (35% acetonitrile/0.1% trifluroacetic acid) was perfused in the control group.
(§2) Rats were randomly classified into […] groups, with 10 animals per group. 1) the sham surgery group: only 35% acetonitrile/0.1% trifluroacetic acid+solvent was perfused into the ventricles of the rats; 2) the model group: Aβ (1-40)+solvent; 3) Aβ (1-40)+L-NBP 10 mg/kg group; 4) Aβ (1-40)+L-NBP 30 mg/kg group. Respective drug or solvent was drenched since the 2nd day after the surgery. The water maze experiment was performed on the 9-13 day after the surgery, while the platform exploration experiment was performed on the 13th day, and the working memory test was performed on the 14-16th days. Animals were decapitated to remove brains for biochemical assay on the 17th day. In all ethological tests, medicines were administered 40 minutes prior to the respective test.
(§3) Malondialdehyde (MDA) and glutathione peroxidase (GSH-Px) were determined by the same assays as above.
(§4) All results were expressed in mean±standard error. Comparison of latencies between groups in water maze experiment was performed using two-factor analysis of variance in replicate. Comparison between groups was performed using post hoc LSD or Turkey test. Platform exploration test in water maze experiment, working memory test and biochemical assay were analyzed using one-factor analysis of variance. A difference was considered significant when p<0.05.

malondialdehyde (MDA) [2] = assay: MDA content in cortex and hippocampus of hypoperfused (2-VO) rats; conditions: 10 mg/kg
[3] = test system: rats with permanent ligation of bilateral common carotid arteries (2-VO model); assay: Morris' water maze (training latency, platform exploration) in 2-VO hypoperfusion model; conditions: for amelioration of impaired short-term memory and spatial orientation (overall conclusion): 2-VO rats with poor blood supply to brain, L-NBP at 10 mg/kg, 10 mg/kg
[4] = test system: choline acetyltransferase (ChAT); assay: ChAT activity in cortex and hippocampus of hypoperfused (2-VO) rats; conditions: 10 mg/kg
[5] = test system: neurons, substantia alba of optic tracts and GFAP-positive astrocytes in brain; assay: Pathological and immunohistochemical detection (H-E, K-B, GFAP staining) in 2-VO rats
Procedure: Male Wistar rats, which were 10-weeks old and weighed approximately 280 grams, were used. 5 animals were placed in each cage, while the room temperature was kept at 23° C., with food and water freely accessible. Rats were anaesthetized with sodium pentobarbital (40 mg/kg), then bilateral common carotid arteries were exposed and the envelope of common carotid arteries and vagus nerve was carefully separated. For the hypoperfusion model group, bilateral common carotid arteries were ligated with 5-0 silk thread. For the sham surgery group, the same operation was conducted but with no ligation of bilateral common carotid arteries. A little of sterile crystalline sulfanilamide powder was applied on the wound after the surgery, then the skin was sutured. One month after the surgery, water maze and step-through test were performed. Rats were randomly assigned into 8 groups, with 10 animals per group. 1) sham surgery group: the same operation as that in hypoperfusion group was conducted but without ligation of bilateral common carotid arteries; 2) solvent control group: only vegetable oil was orally administered; 3) DL-NBP 10 mg/kg group; 4) DL-NBP 30 mg/kg group; 5) L-NBP 10 mg/kg group; 6) L-NBP 30 mg/kg group; 7) D-NBP 30 mg/kg group; Respective medicines or solvent were drenched since the 10th day after the surgery. Water maze experiments were performed on the 29-33rd days since the surgery, while step-through tests were performed on the 34-35th days since the surgery. Animals were killed for biochemical assay or pathological examination on the 36th day. In all the ethological tests, medicines were administered 40 minutes prior to respective test. 4-6 animals were chosen from each group randomly. After the ethological experiments, rats were anaesthetized with pentobarbital (100 mg/kg ip). Animal's skin and thorax was sequentially cut open and the heart was sufficiently exposed. Left tip of the heart was cut open, a perfusion needle was inserted along the aorta. After clamping with hemostat, physiological saline was infused. […]

[6] = test system: glutathione peroxidase (GSH-Px); assay: GSH-Px activity in cortex and hippocampus after continuous perfusion of Aβ (1-40); conditions: Aβ (1-40) rats; for GSH-PX, hippocampus / GSH-PX, cortex: n = 7; for GSH-PX, hippocampus: model 9.32 ± 1.01, sham 16.19 ± 1.19; for GSH-PX, cortex: model 11.18 ± 1.32, sham 15.86 ± 0.91
Procedure: as §1, §2, §3, §4

CCCC[C@@H]1OC(=O)c2ccccc21 [L-NBP, L-n-butylphthalide]
MDA, hippocampus (malondialdehyde (MDA) [1]; 10 mg/kg, p<0.01 vs model): 1.12 ± 0.07 nmol/mg protein
MDA, cortex (malondialdehyde (MDA) [1]; 10 mg/kg, p<0.05 vs model): 1.06 ± 0.05 nmol/mg protein
reduction of hippocampal MDA content (malondialdehyde (MDA) [1]; 10 mg/kg, vs model, p<0.01): 24.3%
reduction of cortical MDA content (malondialdehyde (MDA) [1]; 10 mg/kg, vs model, p<0.05): 28.4%
MDA, hippocampus (malondialdehyde (MDA) [1]; 30 mg/kg, p<0.05 vs model): 1.15 ± 0.07 nmol/mg protein
MDA, cortex (malondialdehyde (MDA) [1]; 30 mg/kg, p<0.05 vs model): 1.06 ± 0.10 nmol/mg protein
effect on cortical and hippocampal MDA content (in words) (malondialdehyde (MDA) [1]; 30 mg/kg, vs model group p<0.05): weaker than that in the 10 mg/kg group, yet were still significantly different; also recorded: a little weaker in the 30 mg/kg group than in the 10 mg/kg group, yet still significantly different
reduction of MDA content in cortex (malondialdehyde (MDA) [2]; 2-VO rats, vs model group, p<0.001): 20.7%
MDA content, hippocampus (malondialdehyde (MDA) [2]; hypoperfused rats, n = 7-9, solvent control 3.63 ± 0.45, sham 3.03 ± 0.12): 3.42 ± 0.12 nmol/mg protein
MDA content, cortex (malondialdehyde (MDA) [2]; hypoperfused rats, n = 7-9, solvent control 3.91 ± 0.22, sham 3.13 ± 0.10, p<0.001 vs solvent control): 3.10 ± 0.09 nmol/mg protein
detention time in the target quadrant (platform exploration test, 60 seconds free swimming) ([3]; 10 mg/kg oral, 2-VO rats, mean±standard error, solvent control 14.40±0.73, sham 17.73±1.19, p<0.05 vs solvent control): 17.62 ± 1.27 s
latency (time required for finding the platform) after 5 days of training ([3]; 10 mg/kg oral, 2-VO rats, mean±standard error, solvent control 47.6±5.88, sham surgery 12.6±3.34, p<0.001 vs solvent control): 26.85 ± 5.98 s
search strategy after 5 days of training ([3]; 10 mg/kg oral, 2-VO rats, solvent control still peripheral and random): changed from peripheral and random to purposive and linear
amelioration of impaired short-term memory and spatial orientation (overall conclusion) [3]: could significantly ameliorate
amelioration of impaired short-term memory and spatial orientation (overall conclusion) ([3]; listed as L-n-butylphthalide): could significantly improve; also recorded: could significantly ameliorate
improvement of cortical ChAT activity as compared with the model group ([4]; continuous administration for 16 days, 2-VO rats, p<0.05): 37.1%
ChAT activity, cortex ([4]; hypoperfused rats, n = 7-9, solvent control 65.6 ± 15.1, p<0.05 vs solvent control): 104.3 ± 8.2 % of sham
ChAT activity, hippocampus ([4]; hypoperfused rats, n = 7-9, solvent control 102.6 ± 15.1): 110.0 ± 13.5 % of sham
number of GFAP-positive astrocytes (immunohistochemistry) ([5]; 10 mg/kg): greatly reduced
sparse substantia alba / vacuola in optic tracts (K-B staining) ([5]; 10 mg/kg extended administration): significant reduction of vacuola
neuronal damage in cortex and hippocampal CA1 induced by hypoperfusion (H-E staining) ([5]; 10 mg/kg, 5 weeks after ligation): could be significantly ameliorated
GSH-Px activity after treatment (in words) ([6]; 10 mg/kg): could also increase the activity of GSH-Px, but with no statistically significant difference
GSH-PX, hippocampus ([6]; 10 mg/kg): 12.73 ± 1.34 U/mg protein
GSH-PX, cortex ([6]; 10 mg/kg): 11.73 ± 0.53 U/mg protein
GSH-PX, hippocampus ([6]; 30 mg/kg, p<0.01 vs model): 18.91 ± 1.16 U/mg protein
GSH-PX, cortex ([6]; 30 mg/kg, p<0.01 vs model): 15.40 ± 1.03 U/mg protein
GSH-Px activity after treatment (in words) ([6]; 30 mg/kg, p<0.01): increased significantly
GSH-Px activity and MDA content (overall conclusion) [6]: could improve GSH-Px activity and reduce MDA content
